The results in this text go back to patent US12692247B2, “Phenyl- and pyridopyrazole derivatives as inhibitors of DDR1” (Redx Pharma Limited, priority 2021, dated 2026).

For one test, the target named is T1, Recombinant human DDR1 (Homo sapiens, UniProt Q08345).
T1 construct: Recombinant human DDR1 (2.5 nM; aa440-876 containing a GST tag)
As to the kind of experiment: LanthaScreen Eu Kinase Binding Assay, DDR1. As to conditions: recombinant human DDR1 (2.5 nM; aa440-876, GST tag), Kinase Tracer 178 5 nM, time-resolved fluorescence, at least two independent replicates; read-out: DDR1 pIC50 (converted). The essentials: (§1)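 GST-tagged kinase domains (DDR1 aa440-876 at 2.5 nM; DDR2 aa427-855 at 1.75 nM) were preincubated 30 min at room temperature with compound in HEPES pH 7.3 buffer. Then 1 nM Eu-anti-GST plus Tracer 178 (5 nM DDR1, 10 nM DDR2) were added; after 60 min, TR-FRET gave IC50 by four-parameter fit, ≥2 replicates.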
On the technique in general: TR-FRET usually uses a lanthanide donor and a delayed reading to cut background.

Another test addresses T2, Recombinant human DDR2 (Homo sapiens, UniProt Q16832).
T2 construct: DDR2 (1.75 nM; aa427-855 containing a GST tag)
T2 sequence (Q16832 427-855): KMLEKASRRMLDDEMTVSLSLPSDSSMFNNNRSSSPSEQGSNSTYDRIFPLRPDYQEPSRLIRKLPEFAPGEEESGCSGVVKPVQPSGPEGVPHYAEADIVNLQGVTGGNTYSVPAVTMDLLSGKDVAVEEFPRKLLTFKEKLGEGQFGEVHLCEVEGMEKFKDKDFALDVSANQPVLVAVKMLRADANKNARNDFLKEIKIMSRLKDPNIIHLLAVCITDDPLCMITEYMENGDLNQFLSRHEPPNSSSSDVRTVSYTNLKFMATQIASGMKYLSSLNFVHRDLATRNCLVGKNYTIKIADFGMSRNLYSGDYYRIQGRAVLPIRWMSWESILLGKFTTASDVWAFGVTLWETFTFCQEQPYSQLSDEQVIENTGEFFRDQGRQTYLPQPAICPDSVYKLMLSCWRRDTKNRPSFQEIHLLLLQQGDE
As to the kind of experiment: LanthaScreen Eu Kinase Binding Assay, DDR2. The note with it: recombinant human DDR2 (1.75 nM; aa427-855, GST tag), Kinase Tracer 178 10 nM, time-resolved fluorescence, at least two independent replicates; read-out: DDR2 pIC50 (converted). In short, it runs like this:
as §1

Molecules are shown by their SMILES.

T1 sequence (Q08345 440-876 isoform Q08345-2): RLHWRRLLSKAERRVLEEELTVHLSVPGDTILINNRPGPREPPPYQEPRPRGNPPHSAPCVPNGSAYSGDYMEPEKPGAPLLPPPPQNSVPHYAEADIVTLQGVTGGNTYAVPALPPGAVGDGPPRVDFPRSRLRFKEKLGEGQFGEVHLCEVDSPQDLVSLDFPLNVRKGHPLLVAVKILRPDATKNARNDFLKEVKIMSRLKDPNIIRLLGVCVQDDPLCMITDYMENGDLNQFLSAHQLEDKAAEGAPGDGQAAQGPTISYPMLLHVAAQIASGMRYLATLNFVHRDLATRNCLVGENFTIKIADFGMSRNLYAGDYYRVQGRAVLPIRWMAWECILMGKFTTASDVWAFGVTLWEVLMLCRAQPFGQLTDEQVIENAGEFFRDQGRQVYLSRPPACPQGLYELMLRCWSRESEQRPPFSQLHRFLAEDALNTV

In the case of `CN1CCN(Cc2ccc(NC(=O)Cn3ccc4cccc(Nc5ccc6c(cnn6C)c5)c4c3=O)cc2C(F)(F)F)CC1` [Example 76], the IC50 on Recombinant human DDR1 and on Recombinant human DDR2 was 10 to 100 nM in each case.

Consider `Cn1ccnc1NC(=O)Cn1ccc2cccc(Nc3ccc4c(cnn4C)c3)c2c1=O` [Example 77, N-(1-methylimidazol-2-yl)-2-[8-[(1-methylindazol-5-yl)amino]-1-oxo-2-isoquinolyl]acetamide], for which the IC50 on Recombinant human DDR1 and at Recombinant human DDR2 was ≥ 1000 nM each time.

Take `Cn1ncc2cc(Nc3cccc4ccn(CC(=O)N5CCC[C@H]5C(F)(F)F)c(=O)c34)cnc21` [Example 78, 8-[(1-methylpyrazolo[3,4-b]pyridin-5-yl)amino]-2-[2-oxo-2-[(2S)-2-(trifluoromethyl)pyrrolidin-1-yl]ethyl]isoquinolin-1-one]: the results for the IC50 on Recombinant human DDR1 and on Recombinant human DDR2 were 10 to 100 nM and 100 to 1000 nM, respectively.

With `Cc1cn(-c2cc(NC(=O)Cn3ccc4cccc(Nc5ccc6c(cnn6C)c5)c4c3=O)cc(C(F)(F)F)c2)cn1` [Example 79, N-[3-(4-methylimidazol-1-yl)-5-(trifluoromethyl)phenyl]-2-[8-[(1-methylindazol-5-yl)amino]-1-oxo-2-isoquinolyl]acetamide], the IC50 at Recombinant human DDR1 was 10 to 100 nM; at Recombinant human DDR2 it was 100 to 1000 nM.

With `CC(=O)C1CCN(C(=O)Cn2ccc3cccc(Nc4ccc5c(cnn5C)c4)c3c2=O)CC1` [Example 80, 2-[2-(4-acetyl-1-piperidyl)-2-oxo-ethyl]-8-[(1-methylindazol-5-yl)amino]isoquinolin-1-one], the values for the IC50 at Recombinant human DDR1 and at Recombinant human DDR2 were 100 to 1000 nM and ≥ 1000 nM, respectively.

Take `Cn1cnc(NC(=O)Cn2ccc3cccc(Nc4ccc5c(cnn5C)c4)c3c2=O)c1` [Example 81, N-(1-methylimidazol-4-yl)-2-[8-[(1-methylindazol-5-yl)amino]-1-oxo-2-isoquinolyl]acetamide]: the figures for the IC50 on Recombinant human DDR1 and at Recombinant human DDR2 were 10 to 100 nM and ≥ 1000 nM, respectively.

In the case of `Cn1ncc2cc(Nc3cccc4ccn(CC(=O)N5CCOCC5C(F)(F)F)c(=O)c34)ccc21` (centres unmarked) [Example 87, 8-[(1-methylindazol-5-yl)amino]-2-[2-oxo-2-[3-(trifluoromethyl)morpholin-4-yl]ethyl]isoquinolin-1-one], the IC50 on Recombinant human DDR1 was 10 to 100 nM; at Recombinant human DDR2 it was 100 to 1000 nM.

With `CN(c1ccc2c(cnn2C)c1)c1cccc2ccn(CC(=O)NCC(F)(F)F)c(=O)c12` [Example 88, 2-[8-[methyl-(1-methylindazol-5-yl)amino]-1-oxo-2-isoquinolyl]-N-(2,2,2-trifluoroethyl) acetamide], the IC50 was 10 to 100 nM at Recombinant human DDR1 and 100 to 1000 nM on Recombinant human DDR2.

Consider `Cn1ncc2cc(Nc3cccc4ccn(CC(=O)N5CCCCC5)c(=O)c34)ccc21` [Example 93], for which the IC50 at Recombinant human DDR1 and on Recombinant human DDR2 was 100 to 1000 nM in each case.

For `Cn1ncc2cc(Nc3cccc4ccn(CC(=O)N5CCCC5)c(=O)c34)ccc21` [Example 94, 8-[(1-methyl-1H-indazol-5-yl)amino]-2-[2-oxo-2-(pyrrolidin-1-yl)ethyl]-1,2-dihydroisoquinolin-1-one], the IC50 is 100 to 1000 nM at Recombinant human DDR1 and ≥ 1000 nM at Recombinant human DDR2.

With `Cn1ncc2cc(Nc3cccc4ccn(CC(=O)Nc5cnco5)c(=O)c34)ccc21` [Example 95, 2-{8-[(1-methyl-1H-indazol-5-yl)amino]-1-oxo-1,2-dihydroisoquinolin-2-yl}-N-(1,3-oxazol-5-yl)acetamide], the IC50 is 10 to 100 nM on Recombinant human DDR1 and 100 to 1000 nM on Recombinant human DDR2.

As to `C[C@@H]1COC[C@H](C)N1C(=O)Cn1ccc2cccc(Nc3ccc4c(cnn4C)c3)c2c1=O` [Example 96, 2-{2-[(3R,5S)-3,5-dimethylmorphin-4-yl]-2-oxoethyl}-8-[(1-methyl-1H-indazol-5-yl)amino]-1,2-dihydroisoquinolin-1-one], the results for the IC50 on Recombinant human DDR1 and on Recombinant human DDR2 were 100 to 1000 nM and ≥ 1000 nM, respectively.

As for `Cn1ncc2cc(Nc3cccc4ccn(CC(=O)N5C6CCC5COC6)c(=O)c34)ccc21` [Example 97, 8-[(1-methyl-1H-indazol-5-yl)amino]-2-(2-{3-oxa-8-azabicyclo[3.2.1]octan-8-yl}-2-oxoethyl)-1,2-dihydroisoquinolin-1-one], the IC50 at Recombinant human DDR1 was 100 to 1000 nM; on Recombinant human DDR2, ≥ 1000 nM.

With `Cc1cc(C)n(C(=O)Cn2ccc3cccc(Nc4ccc5c(cnn5C)c4)c3c2=O)n1` [Example 98, 2-[2-(3,5-dimethyl-1H-pyrazol-1-yl)-2-oxoethyl]-8-[(1-methyl-1H-indazol-5-yl)amino]-1,2-dihydroisoquinolin-1-one], the IC50 at Recombinant human DDR1 and on Recombinant human DDR2 was 10 to 100 nM each time.

On to `Cn1ncc2cc(Nc3cccc4ccn(CC(=O)Nc5cncc(C(F)(F)F)c5)c(=O)c34)cnc21` [Example 99, 2-[8-({1-methyl-1H-pyrazolo[3,4-b]pyridine-5-5-yl}amino)1-oxo-1,2-dihydroisoquinolin-2-yl]-N-[5-(trifluoromethyl)pyridine-3-yl]acetamide], for which the IC50 on Recombinant human DDR1 and at Recombinant human DDR2 was 10 to 100 nM throughout.

As for `Cn1ncc2cc(Nc3cccc4ccn(CC(=O)Nc5cnoc5)c(=O)c34)cnc21` [Example 101], the figures for the IC50 on Recombinant human DDR1 and at Recombinant human DDR2 were 10 to 100 nM and 100 to 1000 nM, respectively.

In the case of `Cn1ncc2cc(Nc3cccc4ccn(CC(=O)Nc5cccc(C(C)(C)N)c5)c(=O)c34)ccc21` [Example 103], the IC50 on Recombinant human DDR1 is < 10 nM; on Recombinant human DDR2, 10 to 100 nM.

In the case of `CN(C)Cc1cccc(NC(=O)Cn2ccc3cccc(Nc4ccc5c(cnn5C)c4)c3c2=O)c1` [Example 104, N-{3-[(dimethylamino)methyl]phenyl}-2-{8-[(1-methyl-1H-indazol-5-yl)amino]-1-oxo-1,2-dihydroisoquinolin-2-yl}acetamide], the IC50 on Recombinant human DDR1 was 10 to 100 nM; on Recombinant human DDR2, 100 to 1000 nM.

In the case of `CN(C)Cc1ccc(NC(=O)Cn2ccc3cccc(Nc4ccc5c(cnn5C)c4)c3c2=O)cc1C(F)(F)F` [Example 112, N-[4-[(dimethylamino)methyl]-3-(trifluoromethyl)phenyl]-2-[8-[(1-methylindazol-5-yl)amino]-1-oxo-2-isoquinolyl]acetamide], the IC50 on Recombinant human DDR1 is < 10 nM; at Recombinant human DDR2 it was 10 to 100 nM.

`Cn1ncc2cc(Nc3cccc4ccn(CC(=O)NCC(F)(F)F)c(=O)c34)cc(C#N)c21` [Example 119, 2-(8-((7-cyano-1-methyl-1H-indazol-5-yl)amino)-1-oxoisoquinolin-2(1H)-yl)-N-(2,2,2-trifluoroethyl)acetamide]: the IC50 is < 10 nM at Recombinant human DDR1 and ≥ 1000 nM at Recombinant human DDR2.

On to `Cn1ncc2cc(Nc3cccc4ccn(CC(=O)N5CCCC(C(F)(F)F)C5)c(=O)c34)ccc21` (centres unmarked) [Example 121], for which the IC50 on Recombinant human DDR1 was 10 to 100 nM; on Recombinant human DDR2, 100 to 1000 nM.

For the compound `Cn1ncc2cc(Nc3cccc4ccn(CC(=O)NCC(F)(F)F)c(=O)c34)cc(C(N)=O)c21` [Example 125, 1-Methyl-5-[[1-oxo-2-[2-oxo-2-(2,2,2-trifluoroethylamino)ethyl]-8-isoquinolyl]amino]indazole-7-carboxamide], the IC50 was 100 to 1000 nM at Recombinant human DDR1 and ≥ 1000 nM at Recombinant human DDR2.

Take `Cn1ncc2cc(Nc3cccc4ccn(CC(=O)N5CCC[C@H]5C(F)F)c(=O)c34)ccc21` [Example 131, 2-[2-[(2S)-2-(difluoromethyl)pyrrolidin-1-yl]-2-oxo-ethyl]-8-[(1-methylindazol-5-yl)amino]isoquinolin-1-one]: the IC50 at Recombinant human DDR1 was < 10 nM; at Recombinant human DDR2, 10 to 100 nM.

For the compound `CN(C)CCc1ccc(NC(=O)Cn2ccc3cccc(Nc4ccc5c(cnn5C)c4)c3c2=O)cc1C(F)(F)F` [Example 133, N-[4-[(dimethylamino)ethyl]-3-(trifluoromethyl)phenyl]-2-[8-[(1-methylindazol-5-yl)amino]-1-oxo-2-isoquinolyl]acetamide], the results for the IC50 on Recombinant human DDR1 and on Recombinant human DDR2 were 10 to 100 nM and 100 to 1000 nM, respectively.

Turning to `Cn1ncc2cc(Nc3cccc4ccn(CC(=O)N5CCC[C@H]5CF)c(=O)c34)ccc21` [Example 136, 2-[2-[(2S)-2-(fluoromethyl)pyrrolidin-1-yl]-2-oxo-ethyl]-8-[(1-methylindazol-5-yl)amino]isoquinolin-1-one], the IC50 at Recombinant human DDR1 was < 10 nM; at Recombinant human DDR2, 10 to 100 nM.

Regarding `Cn1ncc2cc(Nc3cccc4ccn(CC(=O)NCC56CCCN5CCC6)c(=O)c34)ccc21` [Example 138], the IC50 at Recombinant human DDR1 and at Recombinant human DDR2 was ≥ 1000 nM throughout.

With `CN(c1ccc2c(cnn2C)c1)c1cccc2ccn(CC(=O)Nc3cnoc3)c(=O)c12` [Example 140, N-isoxazol-4-yl-2-[8-[methyl-(1-methylindazol-5-yl)amino]-1-oxo-2-isoquinolyl]acetamide], the IC50 at Recombinant human DDR1 and on Recombinant human DDR2 was 10 to 100 nM throughout.

Regarding `CC(=O)C1CCCCN1C(=O)Cn1ccc2cccc(Nc3ccc4c(cnn4C)c3)c2c1=O` (centres unmarked) [Example 141, 2-[2-(2-acetyl-1-piperidyl)-2-oxoethyl]-8-[(1-methylindazol-5-yl)amino]isoquinolin-1-one], the figures for the IC50 on Recombinant human DDR1 and at Recombinant human DDR2 were 100 to 1000 nM and ≥ 1000 nM, respectively.
